Values of other authors in patent US8529907B2, “Methods of treating ophthalmic disorders” (Nikken Sohonsha Corporation, priority 2008, dated 2013).

Legend:
RP patients = details: 15,000 U/d

SMILES	duration of supported rod retinal function post-treatment (Rpe65-deficient mice; early intervention)	retinal ester accumulation (Rpe65-deficient mice; early intervention)	rod photopigment and rod physiology (Rpe65-deficient mice; oral, within 48 h, Rpe65-deficient mice)	rescue of mutant opsin P23H (mutant opsin P23H)	slowing of the progress of RP (RP patients)
CC1=C(/C=C/C(C)=C\C=C\C(C)=C\C=O)C(C)(C)CCC1 [9-cis-retinal]	more than 6 months	significantly attenuated	formation of rod photopigment and dramatic improvement in rod physiology	effectively rescued	–
CC1=C(/C=C/C(C)=C/C=C/C(C)=C/C=O)C(C)(C)CCC1 [11-cis-retinal]	–	–	–	effectively rescued	–
CCCCCCCCCCCCCCCC(=O)OC/C=C(C)/C=C/C=C(C)/C=C/C1=C(C)CCCC1(C)C [Vitamin A palmitate]	–	–	–	–	about 2 % per year
